Laboratory results reported in ChEMBL document CHEMBL3507680, “University of Dundee, Gates Library screen for HepG2 cell viability”.

Assay: Human HepG2 cell viability assay in 384 well format
Type: toxicity, cell-based
Set-up: dose 125 nL, time 70.5 hour; concentration not given beside the values
Details: HepG2 cells, read-out: Inhibition

Row | Compound | cytotoxicity at 70.5 h
1 | COC(=O)c1ccc(N2CCN(C(=O)c3cc(C)no3)C(C)C2)cc1 (stereo unspecified) | -12%
2 | Cc1nc(CN2CCCC(NCc3ccc(C(N)=O)cc3)C2)no1 (stereo unspecified) | -4.31%
3 | Cc1cc(NC(=O)CNC2CCc3ncnn3C2)no1 (stereo unspecified) | -18.6%
4 | CCc1nc2n(n1)CC(NCCC(=O)Nc1cc(C)on1)CC2 (stereo unspecified) | -6.35%
5 | Cc1nc2n(n1)CC(NCCC(=O)Nc1cc(C)on1)CC2 (stereo unspecified) | -6.62%
6 | CN(C)c1cc2c(nn1)CCN(C(=O)C1CCCc3ccccc31)C2 (stereo unspecified) | -8.02%
7 | COc1cc(CNC(=O)N(Cc2ccc(F)cc2F)C2CC2)ccn1 | -12.9%
8 | Nc1cc2c(nn1)CCN(C(=O)C1CCc3ccccc31)C2 (stereo unspecified) | -11.2%
9 | Cc1cc(CNC(=O)N(Cc2ccc(F)cc2F)C2CC2)no1 | 15.5%
10 | Cc1cc(NC(=O)CN2CCC(N(C)Cc3ncc(C)o3)C2)n(C)n1 (stereo unspecified) | 16.2%
11 | CCCN(C)CCC(=O)N1CCCC1Cn1cccn1 (stereo unspecified) | 15.3%
12 | CC(C(=O)NCCOc1ccccc1)n1cncn1 (stereo unspecified) | -12.5%
13 | N#Cc1ccc(OCC(O)CN2CCC(c3ccn[nH]3)CC2)cc1 (stereo unspecified) | -14.4%
14 | NC(=O)CN1CCCN(C(=O)CCOc2ccccc2Cl)CC1 | -6.92%
15 | c1cncc(-c2noc(CN3CCCC(Cn4cncn4)C3)n2)c1 (stereo unspecified) | 9.23%
16 | c1ccc(-c2noc(CN3CCCC(Cn4cncn4)C3)n2)nc1 (stereo unspecified) | -11.5%
17 | Cc1ccc(C)c(OCCC(=O)N2CCCN(CC(N)=O)CC2)c1 | -7.33%
18 | Cc1ccc(-c2noc(CN3CCCC(Cn4cncn4)C3)n2)cc1 (stereo unspecified) | -1.78%
19 | CC(C)(C)C(O)CN1CCN(C(=O)c2ccc3c(c2)COC3)CC1 (stereo unspecified) | 10.4%
20 | Cc1cnn(CCNCC(O)COc2ccc(Cl)cc2Cl)c1 (stereo unspecified) | -2.81%
21 | Cc1cnn(CCNCC(O)COc2cc(Cl)ccc2Cl)c1 (stereo unspecified) | -14.6%
22 | Cc1cnn(CCNCC(O)COc2ccc3ccccc3c2)c1 (stereo unspecified) | -0.298%
23 | CCc1noc(C)c1C(=O)N1CCCC1c1c(C)nn(C)c1C (stereo unspecified) | -1.9%
24 | CC(C(=O)NCC(F)(F)F)N1CCC(N2CCN(C)C2=O)CC1 (stereo unspecified) | -8.46%
25 | CCCc1noc(CCC(=O)N2CCCC2c2cccs2)n1 (stereo unspecified) | -2.53%
26 | CCn1ncc2c1CCCC2NCc1cc(C)ccc1OC (stereo unspecified) | -12.5%

Row | Compound | cytotoxicity at 70.5 h
27 | CN(CC(=O)N1CCCCC1Cn1cccn1)Cc1ccccc1 (stereo unspecified) | 13%
28 | COc1c(C2CCCN2C(=O)c2c(C)noc2C)c(C)nn1C (stereo unspecified) | -8.08%
29 | CN(CC(=O)N1CCCC1Cn1cccn1)Cc1ccccc1 (stereo unspecified) | -17.4%
30 | CCCc1noc(CCC(=O)N2CCCC2c2ccncc2)n1 (stereo unspecified) | -5.95%
31 | COc1ccccc1COCC(O)CN1CCC(c2ccn[nH]2)CC1 (stereo unspecified) | -8.12%
32 | c1coc(-c2noc(CN3CCCC3Cn3cncn3)n2)c1 (stereo unspecified) | -8.45%
33 | CCn1ncc2c1CCCC2NCc1ccc(OC)cc1OC (stereo unspecified) | -4.5%
34 | Cc1cnc(CN(C)C2CCN(CC(=O)Nc3nccs3)C2)o1 (stereo unspecified) | -5.94%
35 | CCn1cc(CN2CCCN(C(=O)c3sccc3OC)CC2)cn1 | 3.74%
36 | O=C(CN1CCCC(Cn2cncn2)C1)NCCC1=CCCCC1 (stereo unspecified) | 7.12%
37 | CCn1cc(CN2CCCN(C(=O)c3cccc(C#N)c3)CC2)cn1 | -3.9%
38 | COc1cccc(C2CCCN2CCCNS(C)(=O)=O)c1 (stereo unspecified) | -12.4%
39 | COc1ccc(C2CCCCCN2CCCNS(C)(=O)=O)cc1 (stereo unspecified) | -6.03%
40 | CCCc1nc(CN2CCCC2c2cnn(C)c2)cs1 (stereo unspecified) | 13%
41 | Cc1cnn(CCC(=O)N2CCCN(c3nc(C)cs3)CC2)c1 | -3.54%
42 | Cn1cc(CN2CCCN(C(=O)c3sccc3C#N)CC2)cn1 | -2.13%
43 | O=C(CS(=O)(=O)Cc1cc(Cl)c2c(c1)OCCCO2)NCC1CC1 | -3.53%
44 | CN(C)c1ncccc1CNS(=O)(=O)c1ccc(C(N)=O)cc1 | -7.08%
45 | CNC(=O)CCS(=O)(=O)Cc1cc(Cl)c2c(c1)OCCCO2 | -3.42%
46 | CN(C)c1ncccc1CNS(=O)(=O)c1ccc(F)c(F)c1 | 1.87%
47 | CN(Cc1ccsc1)C(=O)Nc1ccc(S(C)(=O)=O)cc1 | -1.57%
48 | CC(C)C(C)(C#N)NC(=O)CN1CCC(c2ccnn2CCO)CC1 (stereo unspecified) | -3.64%
49 | Cn1nccc1C1CCN(CC(=O)NCC2CC2)CC1 | -8.55%
50 | CCOc1ccnc(N2CCN(C(=O)c3cnc[nH]3)CC2)n1 | -0.507%
51 | CCOc1ccnc(N2CCN(C(=O)c3cc[nH]n3)CC2)n1 | -4.46%
52 | Cn1cc(C2CCCN2Cc2csc(-c3ccccc3)n2)cn1 (stereo unspecified) | -7.14%

Row | Compound | cytotoxicity at 70.5 h
53 | c1cnn(-c2ccc(CN3CCCC(Cn4cncn4)C3)cc2)c1 (stereo unspecified) | -1.71%
54 | COc1ccc2cc(C(=O)N3CCCC(n4ccnc4C)C3)[nH]c2c1 (stereo unspecified) | 0.0549%
55 | Cc1nccn1C1CCCN(C(=O)c2cc3c(F)cccc3[nH]2)C1 (stereo unspecified) | -1.56%
56 | COc1cccc(CN2CCN(C(=O)CN3CCOCC3)CC2)n1 | 0.577%
57 | CCN1CCOC(CNCc2ccccc2OCc2ccccn2)C1 (stereo unspecified) | 1.15%
58 | CCc1cnc(CN(C(C)=O)C2CCN(CCc3cnn(C)c3)C2)o1 (stereo unspecified) | 2.5%
59 | CCc1cnc(CN(C)C2CCN(CCc3cccs3)C2)o1 (stereo unspecified) | -4.48%
60 | CN(C)C(=O)CS(=O)(=O)Cc1cc(Cl)c2c(c1)OCCCO2 | 6.99%
61 | CC(C(N)=O)S(=O)(=O)Cc1cc(Cl)c2c(c1)OCO2 (stereo unspecified) | -12.5%
62 | CC(C)(C)c1nc(CN(Cc2cccs2)C2CCS(=O)(=O)C2)no1 (stereo unspecified) | -4.17%
63 | Cn1ncc2c(=O)[nH]c(CN3CCCC3CC3CCCCC3)nc21 (stereo unspecified) | -9.61%
64 | CC(C)OCc1ccc(CNC(=O)CC(F)(F)F)cc1 | -7.73%
65 | CCCNC(=O)CN1CCC(C(=O)Nc2cnn(CC)c2)CC1 | -10.8%
66 | O=C(O)C1CCCCN1C(=O)c1cccc(C(F)(F)F)c1 (stereo unspecified) | -9.81%
67 | COc1ccc(C2=CCN(C(=O)C3CCN(C)C(=O)C3)CC2)cc1 (stereo unspecified) | -8.88%
68 | Cc1nc(CN(Cc2ccccc2)C2CCS(=O)(=O)C2)oc1C (stereo unspecified) | -0.994%
69 | COc1cc(C(C)=O)ccc1OCC(=O)N(C)Cc1cnn(C)c1 | -7.56%
70 | CC(C)c1nn(C)c(N(C)C)c1CNCCC(=O)NC1CCCC1 | 26.8%
71 | CCn1cc(NC(=O)C2CCN(CC(=O)N3CCOCC3)CC2)cn1 | -19%
72 | CCc1nnc2n1CCN(C(=O)C(C)COCc1ccccc1)C2 (stereo unspecified) | -9.75%
73 | NC(=O)NCC1CCCCN1C(=O)c1cccc(C(F)(F)F)c1 (stereo unspecified) | -3.78%
74 | O=C(CN1CCCC1Cn1cncn1)NCCc1c(F)cccc1F (stereo unspecified) | 27.9%
75 | COc1cccc(C(=O)N2CCCCC2CNC(N)=O)c1 (stereo unspecified) | 9%
76 | CC(C)Oc1ccc(CNC(=O)CC(F)(F)F)cc1F | -18%
77 | CCNc1cc2c(nn1)CCN(C(=O)Cc1c(C)noc1C)C2 | 4.3%
78 | CCc1nnc2n1CCN(C(=O)COCCc1ccccc1)C2 | -14.7%

Row | Compound | cytotoxicity at 70.5 h
79 | Cc1nc(C)n(CC2CN(c3ccc(C#N)cn3)CCO2)n1 (stereo unspecified) | -4.17%
80 | CCOc1cc(C(=O)N2CCCC(c3cc(C(N)=O)[nH]n3)C2)ccn1 (stereo unspecified) | -7.42%
81 | COCCN1CCC(CNC(=O)C2(c3cc(C)cc(C)c3)CCC2)C1 (stereo unspecified) | -5.65%
82 | CN(C)S(=O)(=O)c1ccc(CN2CCCC2CO)o1 (stereo unspecified) | -17%
83 | COCc1nc(C(=O)N2CCCCC2Cn2cccn2)cs1 (stereo unspecified) | -7.2%
84 | CCc1nc2n(n1)CC(NCc1ncc(-c3ccccc3)o1)CC2 (stereo unspecified) | -5.1%
85 | Cc1csc(N2CCN(CC(=O)Nc3c(C)n[nH]c3C)CC2C)n1 (stereo unspecified) | 7.7%
86 | Cc1nn(C)c(C)c1C1CCCN1C(=O)c1ccc(CN(C)C)cc1 (stereo unspecified) | 15.1%
87 | CN(Cc1ccc2c(c1)OCCO2)C(=O)NCCc1cnn(C)c1 | 6.83%
88 | COCCCNC(=O)CN(C)C(=O)c1cc(C)ccc1O | -9.64%
89 | CN(CC(=O)N1CCC(C(O)c2ccccc2)CC1)c1cnccn1 (stereo unspecified) | -20.6%
90 | Cc1ccc(C)c(OCCN2CCC(N3CCNC3=O)CC2)c1 | -3.76%
91 | COCCNC(=O)CN1CCN(c2nc(C)cs2)C(C)C1 (stereo unspecified) | -1.03%
92 | Cc1nn(C)c(C)c1C1CCCN1C(=O)c1cnc2n[nH]c(C)c2c1 (stereo unspecified) | -7.81%
93 | Cc1cc(CN(C)C(=O)c2cc3c([nH]c2=O)CCCC3=O)no1 | -14.6%
94 | COCCCNC(=O)CN(C)C(=O)c1cc(C)ccc1N(C)C(C)C | -3.7%
95 | O=S(=O)(N(Cc1ccccn1)C1CC1)N1CCCC1c1ccco1 (stereo unspecified) | -8.96%
96 | CC(NC(=O)NCCCn1ccnc1)c1ccc2c(c1)OCCCO2 (stereo unspecified) | -10.6%
97 | Clc1ccc2cccnc2c1CN1CCCC1Cn1cncn1 (stereo unspecified) | -17.7%
98 | O=C(c1ccc(Br)o1)N1CCCCC1Cn1cccn1 (stereo unspecified) | -10.3%
99 | CCc1nc(CN2CCN(C(=O)c3cnccn3)CC2)cs1 | -5.66%
100 | Cc1ncsc1C(=O)NCCSCc1cccs1 | -1.32%
101 | COc1c(CNCCNC(=O)Cc2ccc(F)cc2)c(C)nn1C | 34.8%
